Tests used:
[1] = tested on: PAF-acetylhydrolase; assay: Determination of PAF-acetylhydrolase activity in diluted human serum (remaining PAF read by platelet aggregation); type: biochemical; details: human sera diluted 1 in 100 with PBS, 27 hours at 25° C.
Experimental: (§1) Sera were diluted 1 in 100 in either PBS or 0.1% "Tween" in PBS (v/v). Diluted acid-treated sera were prepared by mixing sera (1 vol.) with 0.1M citrate buffer pH 3.0 (2 vol.), and then 15 minutes later with PBS ([…].).
(§2) The solution (50μl) was then tested for platelet aggregation activity at 37° C. in a Payton dual channel aggregometer using human platelet-rich plasma (500 μl).

[2] = tested on: PAF-acetylhydrolase; assay: Determination of PAF-acetylhydrolase activity in diluted rabbit serum (remaining PAF read by platelet aggregation); type: biochemical; details: rabbit sera diluted 1 in 100 with PBS, 27 hours at 25° C.
Experimental: as §1, §2

[3] = tested on: PAF-antibodies; assay: Competition assay of test substance against ^3 H-PAF for binding to PAF-antibodies; parameters: species or system rabbit; details: ^3 H-PAF 22,676 cpm
Experimental: The resulting mixture was centrifuged, washed twice with phosphate buffered saline containing 0.1% "Tween" 20, centrifuged and the sediment transferred in water (200 μl) to the liquid scintillant "Aquasol" (3 ml) and counted in a liquid scintillation counter.

Compound	stability of PAF in serum [1]	stability of PAF in serum [2]	ASSAY COUNT ([3]; test substance 0.5 ng)	ASSAY/CONTROL ([3]; test substance 0.5 ng) [%]	ASSAY COUNT ([3]; test substance 5 ng)	ASSAY/CONTROL ([3]; test substance 5 ng) [%]	ASSAY COUNT ([3]; test substance 50 ng)	ASSAY/CONTROL ([3]; test substance 50 ng) [%]	ASSAY COUNT ([3]; test substance 500 ng)	ASSAY/CONTROL ([3]; test substance 500 ng) [%]	ASSAY COUNT ([3]; test substance 5,000 ng)	ASSAY/CONTROL ([3]; test substance 5,000 ng) [%]	ASSAY COUNT ([3]; test substance 580 ng)	ASSAY COUNT ([3]; test substance 5,800 ng)
1-O-alkyl-2-O-acetyl-sn-glycero-3-phosphocholine [PAF]	destroyed	destroyed	2,561 cpm	95.2	2,316 cpm	85.7	1,602 cpm	57.8	598 cpm	18.6	228 cpm	4.1		
lyso-lecithin									2,668 cpm	99.4	2,658 cpm	99.0		
CCCCCCCCCCCCCCCCOC[C@@H](O)COP(=O)([O-])OCC[N+](C)(C)C [lyso-PAF]													2,744 cpm	2,746 cpm
lecithin									2,545 cpm	99.6	2,994 cpm			

Reference: US5061626A, “Antigenic anarogues of platelet activating factor” (University of Sydney, priority 1986, dated 1991)
